# pIC50: −log10 of the molar value. The source made the active and inactive calls. The calls are words filed in the database; no cut-off is given here.
# Key:
# Histone deacetylase 8 = biological target: T1, Histone deacetylase 8 (Homo sapiens, UniProt Q9BY41); assay: Inhibition of HDAC8 (unknown origin) incubated for 30 mins by fluorometric analysis
# T1 sequence (Q9BY41 whole entry): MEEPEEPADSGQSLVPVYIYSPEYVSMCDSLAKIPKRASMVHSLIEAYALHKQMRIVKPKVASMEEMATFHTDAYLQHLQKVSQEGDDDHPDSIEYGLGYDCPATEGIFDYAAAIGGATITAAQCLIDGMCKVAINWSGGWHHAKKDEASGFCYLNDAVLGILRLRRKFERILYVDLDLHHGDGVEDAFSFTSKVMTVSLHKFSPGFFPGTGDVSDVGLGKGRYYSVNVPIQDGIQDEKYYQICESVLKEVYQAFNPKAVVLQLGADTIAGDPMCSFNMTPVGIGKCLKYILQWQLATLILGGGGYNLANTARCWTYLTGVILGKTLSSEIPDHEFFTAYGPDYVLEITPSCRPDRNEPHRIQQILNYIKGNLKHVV
# RPMI-8226 = assay: Increase in DR5 protein expression in human RPMI-8226 cells incubated for 24 hrs by western blot analysis; assay type: functional, cell-based; conditions: dose 0.25-1 µM
# Mus musculus [1] = assay: Anti-pulmonary fibrosis activity in bleomycin-induced idiopathic pulmonary fibrosis C57BL/6J mouse model assessed as decrease in collagen I protein expression in lung at 50 mg/kg, ig administered daily via gavage measured after 14 days by western blot analysis; assay type: functional, organism-based; conditions: time 14.0 day
# Mus musculus [2] = assay: Anti-pulmonary fibrosis activity in bleomycin-induced idiopathic pulmonary fibrosis C57BL/6J mouse model assessed as decrease in lung damage by measuring decrease in inflammatory cell infiltration in lung at 25 to 50 mg/kg, ig administered daily via gavage and measured on day 14 by Hematoxylin-Eosin staining based analysis; assay type: functional, organism-based; conditions: dose 25-50 mg/kg, time 14.0 day
# Mus musculus [3] = assay: Anti-pulmonary fibrosis activity in bleomycin-induced idiopathic pulmonary fibrosis C57BL/6J mouse model assessed as decrease in lung damage by measuring decrease in collagen deposition in lungs at 25 to 50 mg/kg, ig administered daily via gavage and measured on day 14 by Masson's trichrome staining based analysis; assay type: functional, organism-based; conditions: dose 25-50 mg/kg, time 14.0 day
# [4] = biological target: T2, Protein deacetylase HDAC6 (Mus musculus) (UniProt Q9Z2V5); assay: In vivo inhibition of HDAC6 in bleomycin-induced idiopathic pulmonary fibrosis C57BL/6J mouse model assessed as increase in acetylated alpha-tubulin level in lung at 50 mg/kg, ig administered via gavage and measured on day 14 by western blot analysis; assay type: functional, organism-based; conditions: time 14.0 day
# T2 sequence (whole entry): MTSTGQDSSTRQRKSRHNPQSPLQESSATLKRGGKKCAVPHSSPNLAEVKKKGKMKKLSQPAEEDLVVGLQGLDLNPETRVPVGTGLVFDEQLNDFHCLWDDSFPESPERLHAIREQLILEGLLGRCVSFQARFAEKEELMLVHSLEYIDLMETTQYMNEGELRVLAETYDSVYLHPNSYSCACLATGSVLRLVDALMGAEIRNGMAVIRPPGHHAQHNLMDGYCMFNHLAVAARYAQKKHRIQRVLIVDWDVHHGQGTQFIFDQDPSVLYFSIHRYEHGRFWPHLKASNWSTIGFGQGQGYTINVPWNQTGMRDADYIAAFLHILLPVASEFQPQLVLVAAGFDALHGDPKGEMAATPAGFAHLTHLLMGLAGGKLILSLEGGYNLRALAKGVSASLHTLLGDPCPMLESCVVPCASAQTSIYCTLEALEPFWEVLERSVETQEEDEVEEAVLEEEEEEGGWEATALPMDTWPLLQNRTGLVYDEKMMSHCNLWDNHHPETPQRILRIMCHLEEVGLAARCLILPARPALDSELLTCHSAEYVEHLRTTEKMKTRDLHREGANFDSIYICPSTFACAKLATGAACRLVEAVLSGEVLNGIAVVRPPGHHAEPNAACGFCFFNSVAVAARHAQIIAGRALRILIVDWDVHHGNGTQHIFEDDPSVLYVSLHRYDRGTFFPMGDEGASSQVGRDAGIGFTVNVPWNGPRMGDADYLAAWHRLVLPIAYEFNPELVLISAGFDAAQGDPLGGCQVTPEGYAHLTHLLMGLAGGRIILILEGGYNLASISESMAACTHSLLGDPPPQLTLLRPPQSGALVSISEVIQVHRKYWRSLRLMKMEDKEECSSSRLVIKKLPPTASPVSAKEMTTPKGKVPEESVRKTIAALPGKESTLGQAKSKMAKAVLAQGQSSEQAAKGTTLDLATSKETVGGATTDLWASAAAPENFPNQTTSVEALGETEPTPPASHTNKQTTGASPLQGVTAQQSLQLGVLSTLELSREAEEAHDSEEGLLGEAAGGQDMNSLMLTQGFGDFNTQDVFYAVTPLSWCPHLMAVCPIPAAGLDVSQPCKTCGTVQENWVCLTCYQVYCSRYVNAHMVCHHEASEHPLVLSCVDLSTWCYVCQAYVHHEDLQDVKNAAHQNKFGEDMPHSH
# [5] = Toxicity against bleomycin-induced pulmonary fibrosis C57BL/6J mouse model assessed as effect on liver morphological changes at 25 to 50 mg/kg, ig administered daily via gavage and measured on day 14 by Hematoxylin-Eosin staining based analysis; assay type: organism-based; conditions: in vivo, po, 336 h, dose 25-50 mg/kg, time 14 day
# [6] = Toxicity against bleomycin-induced pulmonary fibrosis C57BL/6J mouse model assessed as effect on spleen morphological changes at 25 to 50 mg/kg, ig administered daily via gavage and measured on day 14 by Hematoxylin-Eosin staining based analysis; assay type: organism-based; conditions: in vivo, po, 336 h, dose 25-50 mg/kg, time 14 day
# [7] = Toxicity against silicosis C57BL/6J mouse model assessed as AST index in serum at 50 mg/kg, ig administered daily via gavage and measured on day 28; assay type: organism-based; conditions: in vivo, po, 672 h, time 28 day
# [8] = Toxicity against silicosis C57BL/6J mouse model assessed as effect on kidney morphological changes at 50 mg/kg, ig administered daily via gavage and measured on day 28 by Hematoxylin-Eosin staining based analysis; assay type: organism-based; conditions: in vivo, po, 672 h, time 28 day
structure (smiles),measurement,setting,value
O=C(NO)c1ccc(CN2C(=O)C3=C(CCN(Cc4cccc(Cl)c4)C3)N3CCN=C23)cc1,pIC50,Histone deacetylase 8,6.48
same,Activity,RPMI-8226,"Dose-dependent-effect; Higher Activity Compared To Positive Drug, 1 Um Compound Iic, Chidamide, Acy-1215"
same,Activity,Mus musculus [1],"Active; Superior Activity Compared To Positive Drug, Acy-1215"
same,Activity,Mus musculus [2],Active
same,Activity,Mus musculus [3],Active
same,inhibition,[4],"Active; Levels Lower Than The Positive Control, Acy-1215"
same,Activity,[5],Non-toxic
same,Activity,[6],Non-toxic
same,Activity,[7],Non-toxic
same,Activity,[8],Non-toxic

# Reference: ChEMBL document CHEMBL6092154, “Design, synthesis, and evaluation of a novel TRAIL-activated HDAC6 inhibitor for the treatment of pulmonary fibrosis” (Bioorg Med Chem, 2024)
